Earlier results in US9902985B2 (priority 2012, dated 2018).
Where two headings read alike, the source gives them in different places.

Key:
Gram-positive organisms = conditions: fold more potent than vancomycin

For `C=C(C/C=C(\C)CCC=C(C)C)CCC(C)(C)/C=C/CC/C(C)=C/CO[C@@H](COP(=O)(O)O[C@H]1O[C@H](C(N)=O)[C@@](C)(O)[C@H](OC(N)=O)[C@H]1O[C@@H]1O[C@H](CO[C@@H]2O[C@H](CO)[C@@H](O)[C@H](O)[C@H]2O)[C@@H](O[C@@H]2O[C@H](C)[C@@H](O[C@@H]3O[C@H](C(=O)NC4=C(O)CCC4=O)[C@H](O)[C@H](O)[C@H]3O)[C@H](O)[C@H]2NC(C)=O)[C@H](O)[C@H]1NC(C)=O)C(=O)O` [Moenomycin A], the “potency relative to vancomycin” value (Gram-positive organisms) is given as “a thousand times more potent”, the “potency relative to vancomycin” value (Gram-positive organisms; listed as moenomycin) is given as 10-1000 times and the “absorption upon oral administration” value is given as “relatively poor”.
